How the values were obtained:
[1] = molecular target: T1, JAK3 (Homo sapiens, UniProt P52333); assay: Kinobeads assay with antibody detection, JAK3; type: binding; set-up: endogenous in cells; host or cells: mixed Molt4/Ramos cell lysate (1:2); settings: mixed Molt4/Ramos lysate, read-out: JAK3 inhibition value (IC50)
T1 sequence (P52333 1-1124): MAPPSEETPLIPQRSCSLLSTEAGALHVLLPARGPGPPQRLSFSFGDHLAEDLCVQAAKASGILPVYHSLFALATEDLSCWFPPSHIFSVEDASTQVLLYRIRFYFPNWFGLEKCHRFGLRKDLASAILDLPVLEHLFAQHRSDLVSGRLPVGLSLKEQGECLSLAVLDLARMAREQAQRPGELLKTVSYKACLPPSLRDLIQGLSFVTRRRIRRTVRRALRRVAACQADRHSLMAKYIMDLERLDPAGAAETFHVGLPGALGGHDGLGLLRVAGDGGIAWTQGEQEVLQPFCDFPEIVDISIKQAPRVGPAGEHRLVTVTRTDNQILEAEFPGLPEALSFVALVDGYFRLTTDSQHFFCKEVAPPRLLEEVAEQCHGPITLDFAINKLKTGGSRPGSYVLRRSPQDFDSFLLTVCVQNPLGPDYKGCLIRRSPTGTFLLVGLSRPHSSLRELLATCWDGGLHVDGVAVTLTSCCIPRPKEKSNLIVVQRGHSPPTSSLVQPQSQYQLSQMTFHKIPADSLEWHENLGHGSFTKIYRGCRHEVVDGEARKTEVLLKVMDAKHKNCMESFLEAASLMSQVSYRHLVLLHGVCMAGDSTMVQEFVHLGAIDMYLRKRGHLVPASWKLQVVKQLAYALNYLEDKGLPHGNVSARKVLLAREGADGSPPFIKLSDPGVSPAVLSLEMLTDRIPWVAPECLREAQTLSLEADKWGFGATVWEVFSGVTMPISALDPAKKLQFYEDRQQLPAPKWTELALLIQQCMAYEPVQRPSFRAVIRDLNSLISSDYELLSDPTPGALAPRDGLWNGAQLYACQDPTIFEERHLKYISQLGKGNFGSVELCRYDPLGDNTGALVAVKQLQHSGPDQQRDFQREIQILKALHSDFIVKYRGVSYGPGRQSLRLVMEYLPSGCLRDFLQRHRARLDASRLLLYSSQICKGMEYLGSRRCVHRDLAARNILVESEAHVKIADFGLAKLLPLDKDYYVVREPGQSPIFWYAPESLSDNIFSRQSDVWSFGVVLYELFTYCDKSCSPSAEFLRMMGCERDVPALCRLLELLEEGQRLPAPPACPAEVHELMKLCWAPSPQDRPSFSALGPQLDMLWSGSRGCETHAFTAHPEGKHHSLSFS
Description: (§1) The compounds of the present invention as described in the previous examples were tested in a Kinobeads™ assay as described for ZAP-70 (WO-A 2007/137867). Briefly, test compounds (at various concentrations) and the affinity matrix with the immobilized aminopyrido-pyrimidine ligand 24 were added to cell lysate aliquots and allowed to bind to the proteins in the lysate sample. After the incubation time the beads with captured proteins were separated from the lysate. Bound proteins were then eluted and the presence of JAK1; JAK2, JAK3 and TYK2 was detected and quantified using specific antibodies in a dot blot procedure and the Odyssey infrared detection system. Dose response curves for individual kinases were generated and IC50 values calculated. Kinobeads™ assays for ZAP-70 (WO-A 2007/137867) and for kinase selectivity profiling (WO-A 2006/134056) have been previously described.
(§2) 5×DP buffer: 250 mM Tris-HCl pH 7.4, 25% Glycerol, 7.5 mM MgCl2, 750 mM NaCl, 5 mM Na3VO4; filter the 5×DP buffer through a 0.22 μm filter and store in aliquot at −80° C. The 5×DP buffer is diluted with H2O to 1×DP buffer containing 1 mM DTT and 25 mM NaF.
(§3) Stock solutions of test compounds were prepared in DMSO. In a 96 well plate 30 μL solution of diluted test compounds at 5 mM in DMSO were prepared. Starting with this solution a 1:3 dilution series (9 steps) was prepared. For control experiments (no test compound) a buffer containing 2% DMSO was used.
(§4) Molt4 cells (ATCC catalogue number CRL-1582) and Ramos cells (ATCC catalogue number CRL-1596) were grown in 1 L Spinner flasks (Integra Biosciences, #182101) in suspension in RPMI 1640 medium (Invitrogen, #21875-034) supplemented with 10% Fetal Bovine Serum (Invitrogen) at a density between 0.15×10^6 and 1.2×10^6 cells/mL. Cells were harvested by centrifugation, washed once with 1×PBS buffer (Invitrogen, #14190-094) and cell pellets were frozen in liquid nitrogen and subsequently stored at −80° C. Cells were homogenized in a Potter S homogenizer in lysis buffer: 50 mM Tris-HCl, 0.8% NP40, 5% glycerol, 150 mM NaCl, 1.5 mM MgCl2, 25 mM NaF, 1 mM sodium vanadate, 1 mM DTT, pH 7.5. One complete EDTA-free tablet (protease inhibitor cocktail, Roche Diagnostics, 1873580) per 25 mL buffer was added. The material was dounced 10 times using a mechanized POTTER S, transferred to 50 mL falcon tubes, incubated for 30 minutes on ice and spun down for 10 minutes at 20,000 g at 4° C. (10,000 rpm in Sorvall SLA600, precooled). The supernatant was transferred to an ultracentrifuge (UZ)-polycarbonate tube (Beckmann, 355654) and spun for 1 hour at 100.000 g at 4° C. (33.500 rpm in Ti50.2, precooled). The supernatant was transferred again to a fresh 50 mL falcon tube, the protein concentration was determined by a Bradford assay (BioRad) and samples containing 50 mg of protein per aliquot were prepared. The samples were immediately used for experiments or frozen in liquid nitrogen and stored frozen at −80° C.
(§5) Cell lysate (approximately 50 mg protein per plate) was thawed in a water bath at room temperature and then stored on ice. To the thawed cell lysate 1×DP 0.8% NP40 buffer containing protease inhibitors (1 tablet for 25 mL buffer; EDTA-free protease inhibitor cocktail; Roche. Diagnostics 1873580) was added in order to reach a final protein concentration of 10 mg/mL total protein. The diluted cell lysate was stored on ice. Mixed Molt4Ramos lysate was prepared by combining one volume of Molt4 lysate and two volumes of Ramos lysate (ratio 1:2).
(§6) Plates were sealed and incubated for 3 hours in a cold room on a plate shaker (Heidolph tiramax 1000) at 750 rpm. Afterwards the plate was washed 3 times with 230 μL washing buffer (1×DP 0.4% NP40). The filter plate was placed on top of a collection plate (Greiner bio-one, PP-microplate 96 well V-shape, 65120) and the beads were then eluted with 20 μL of sample buffer (100 mM Tris, pH 7.4, 4% SDS, 0.00025% bromophenol blue, 20% glycerol, 50 mM DTT). […]

[2] = molecular target: T2, JAK1 (Homo sapiens, UniProt P23458); assay: Kinobeads assay with antibody detection, JAK1; type: binding; settings: mixed Molt4/Ramos lysate, read-out: JAK1 inhibition value (IC50)
T2 construct: endogenous in cells; host or cells: mixed Molt4/Ramos cell lysate (1:2)
Description: as §1, §2, §3, §4, §5, §6

T2 sequence (P23458 whole entry): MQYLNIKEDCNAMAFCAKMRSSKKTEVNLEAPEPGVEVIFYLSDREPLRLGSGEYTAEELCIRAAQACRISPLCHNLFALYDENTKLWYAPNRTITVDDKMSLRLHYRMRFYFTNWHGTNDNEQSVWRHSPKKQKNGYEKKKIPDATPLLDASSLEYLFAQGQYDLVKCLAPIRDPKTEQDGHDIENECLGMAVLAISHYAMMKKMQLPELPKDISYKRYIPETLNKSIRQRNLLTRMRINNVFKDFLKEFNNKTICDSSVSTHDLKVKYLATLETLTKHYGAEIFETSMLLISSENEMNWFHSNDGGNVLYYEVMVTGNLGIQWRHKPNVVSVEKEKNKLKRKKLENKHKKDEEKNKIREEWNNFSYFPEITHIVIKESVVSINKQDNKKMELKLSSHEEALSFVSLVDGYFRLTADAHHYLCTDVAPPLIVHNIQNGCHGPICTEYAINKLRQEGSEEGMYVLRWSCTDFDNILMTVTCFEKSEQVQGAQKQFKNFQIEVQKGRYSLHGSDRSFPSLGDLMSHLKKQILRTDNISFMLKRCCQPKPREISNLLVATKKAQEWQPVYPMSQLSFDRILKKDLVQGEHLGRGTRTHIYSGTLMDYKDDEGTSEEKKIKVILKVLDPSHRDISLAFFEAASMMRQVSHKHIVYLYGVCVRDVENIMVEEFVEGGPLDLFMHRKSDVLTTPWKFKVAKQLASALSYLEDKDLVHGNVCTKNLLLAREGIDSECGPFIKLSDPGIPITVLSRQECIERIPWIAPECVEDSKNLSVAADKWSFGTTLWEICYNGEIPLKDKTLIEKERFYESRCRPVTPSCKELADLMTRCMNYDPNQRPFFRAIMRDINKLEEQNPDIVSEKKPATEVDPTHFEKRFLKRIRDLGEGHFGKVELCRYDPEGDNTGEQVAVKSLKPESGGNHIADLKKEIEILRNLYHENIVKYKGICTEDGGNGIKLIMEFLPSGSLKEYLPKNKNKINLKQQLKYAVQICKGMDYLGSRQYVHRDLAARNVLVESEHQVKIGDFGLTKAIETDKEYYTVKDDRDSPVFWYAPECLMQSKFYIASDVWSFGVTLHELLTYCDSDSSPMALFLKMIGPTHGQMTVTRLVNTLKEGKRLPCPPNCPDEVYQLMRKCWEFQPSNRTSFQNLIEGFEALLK

## C=CC(=O)Nc1cccc(Cn2ncc3cnc(Nc4cnn(C)c4)nc32)c1 [Example 1, N-(3-((6-((1-Methyl-1H-pyrazol-4-yl)amino)-1H-pyrazolo[3,4-d]pyrimidin-1-yl)methyl)phenyl)acrylamide]
[1]
  IC50: 0.005 µM
[2]
  IC50: > 10 µM

## C=C(C)C(=O)Nc1cccc(Cn2ncc3cnc(Nc4cnn(C)c4)nc32)c1 [Example 5, N-(3-((6-((1-Methyl-1H-pyrazol-4-yl)amino)-1H-pyrazolo[3,4-d]pyrimidin-1-yl)methyl)phenyl)methacrylamide]
[1]
  IC50: 0.057 µM
[2]
  IC50: > 10 µM

## C#CC(=O)Nc1cccc(Cn2ncc3cnc(Nc4cnn(C)c4)nc32)c1 [Example 3, N-(3-((6-((1-Methyl-1H-pyrazol-4-yl)amino)-1H-pyrazolo[3,4-d]pyrimidin-1-yl)methyl)phenyl)propiolamide]
[1]
  IC50: 0.01 µM
[2]
  IC50: > 10 µM

## C=CS(=O)(=O)Nc1cccc(Cn2ncc3cnc(Nc4cnn(C)c4)nc32)c1 [Example 4, N-(3-((6-((1-Methyl-1H-pyrazol-4-yl)amino)-1H-pyrazolo[3,4-d]pyrimidin-1-yl)methyl)phenyl)ethenesulfonamide]
[1]
  IC50: 0.01 µM
[2]
  IC50: > 10 µM

## C=CC(=O)Nc1cc(Cn2ncc3cnc(Nc4cnn(C)c4)nc32)ccc1F [Example 2, […]]
[1]
  IC50: 0.016 µM
[2]
  IC50: > 10 µM

## CC(=O)Nc1cccc(Cn2ncc3cnc(Nc4cnn(C)c4)nc32)c1 [compound 2, N-(3-((6-((1-methyl-1H-pyrazol-4-yl)amino)-1H-pyrazolo[3,4-d]pyrimidin-1-yl)methyl)phenyl)acetamide, reference compound]
[1]
  IC50: 0.206 µM
[2]
  IC50: > 10 µM

## C=CS(=O)(=O)Nc1cccc(Cn2ccc3cnc(Nc4cnn(C)c4)nc32)c1 [Example 7, N-(3-((2-((1-Methyl-1H-pyrazol-4-yl)amino)-7H-pyrrolo[2,3-d]pyrimidin-7-yl)methyl)phenyl)ethenesulfonamide]
[1]
  IC50: 0.012 µM
[2]
  IC50: 7.69 µM

From patent publication US20140323504A1, “Pyrazolo[4,3-c]Pyridine Derivatives As Kinase Inhibitors” (Cellzome Limited, priority 2011, published 2014)
